The target of assay [1] is T1, hERG channel (Homo sapiens, UniProt Q12809).
T1 construct: expressed in transfected cells
The assay can be described thus: hERG electrophysiology, automated whole-cell patch clamp (Patchliner). Format: cell-based. The method in brief: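 Currents were recorded at 0.3 Hz from −80 mV, stepping to +20 mV then −50 mV (300 ms each), in stably transfected CHO-K1 cells. Concentrations (30 nM–100 μM, up to 0.3% DMSO) were added sequentially without washout. IC50 came from Hill fits of control-normalized AUC/peak of each train's final pulse.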

Assay [2] addresses T2, Kv1.3 potassium channel (Homo sapiens, UniProt P22001).
T2 construct: expressed in transfected cells
The assay can be described thus: Kv1.3 potassium channel blocker activity, automated whole-cell patch clamp (Patchliner). Format: cell-based. The method in brief: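 IC50 came from Hill-equation fits of peak and AUC currents from the final pulse at each concentration, normalized to compound-free control. Compounds applied consecutively at 30 nM to 100 μM (up to 0.3% DMSO) to Kv1.3-expressing CHO-K1 cells, P/4 leak subtraction. Pulses were +40 mV, 100 ms, from −90 mV holding, at 0.1 Hz on Patchliner.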

[3] abbreviates: hERG channel, whole-cell patch clamp.
The mark [4] stands for this setting: Kv1.3 potassium channel, whole-cell patch clamp.
The mark [5] stands for this setting: CHO-K1 cells stably expressing hERG, +20 mV 300 ms, -50 mV 300 ms tail current, 0.3 Hz.
Where [6] appears, read: CHO-K1 cells stably expressing Kv1.3, 100 ms pulses from -90 mV to +40 mV, 0.1 Hz.

Each structure is given as a SMILES string. pIC50: −log10 of the molar value.

T2 sequence (P22001 whole entry): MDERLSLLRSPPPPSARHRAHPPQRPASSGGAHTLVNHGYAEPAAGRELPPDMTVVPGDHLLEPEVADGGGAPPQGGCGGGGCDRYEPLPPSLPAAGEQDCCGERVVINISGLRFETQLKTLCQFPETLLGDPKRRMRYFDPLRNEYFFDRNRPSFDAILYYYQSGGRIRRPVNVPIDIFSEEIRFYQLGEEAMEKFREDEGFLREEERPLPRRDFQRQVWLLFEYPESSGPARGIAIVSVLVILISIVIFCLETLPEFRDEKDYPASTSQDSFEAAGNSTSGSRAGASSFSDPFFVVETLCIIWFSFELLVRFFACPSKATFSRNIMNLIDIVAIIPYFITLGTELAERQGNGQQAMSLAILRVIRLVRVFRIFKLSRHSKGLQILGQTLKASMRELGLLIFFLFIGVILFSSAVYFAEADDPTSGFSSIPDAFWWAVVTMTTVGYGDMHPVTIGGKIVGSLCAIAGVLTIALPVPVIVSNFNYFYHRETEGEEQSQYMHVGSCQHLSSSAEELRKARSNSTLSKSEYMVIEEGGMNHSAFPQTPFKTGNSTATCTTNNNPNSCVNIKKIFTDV
T1 sequence (Q12809 whole entry): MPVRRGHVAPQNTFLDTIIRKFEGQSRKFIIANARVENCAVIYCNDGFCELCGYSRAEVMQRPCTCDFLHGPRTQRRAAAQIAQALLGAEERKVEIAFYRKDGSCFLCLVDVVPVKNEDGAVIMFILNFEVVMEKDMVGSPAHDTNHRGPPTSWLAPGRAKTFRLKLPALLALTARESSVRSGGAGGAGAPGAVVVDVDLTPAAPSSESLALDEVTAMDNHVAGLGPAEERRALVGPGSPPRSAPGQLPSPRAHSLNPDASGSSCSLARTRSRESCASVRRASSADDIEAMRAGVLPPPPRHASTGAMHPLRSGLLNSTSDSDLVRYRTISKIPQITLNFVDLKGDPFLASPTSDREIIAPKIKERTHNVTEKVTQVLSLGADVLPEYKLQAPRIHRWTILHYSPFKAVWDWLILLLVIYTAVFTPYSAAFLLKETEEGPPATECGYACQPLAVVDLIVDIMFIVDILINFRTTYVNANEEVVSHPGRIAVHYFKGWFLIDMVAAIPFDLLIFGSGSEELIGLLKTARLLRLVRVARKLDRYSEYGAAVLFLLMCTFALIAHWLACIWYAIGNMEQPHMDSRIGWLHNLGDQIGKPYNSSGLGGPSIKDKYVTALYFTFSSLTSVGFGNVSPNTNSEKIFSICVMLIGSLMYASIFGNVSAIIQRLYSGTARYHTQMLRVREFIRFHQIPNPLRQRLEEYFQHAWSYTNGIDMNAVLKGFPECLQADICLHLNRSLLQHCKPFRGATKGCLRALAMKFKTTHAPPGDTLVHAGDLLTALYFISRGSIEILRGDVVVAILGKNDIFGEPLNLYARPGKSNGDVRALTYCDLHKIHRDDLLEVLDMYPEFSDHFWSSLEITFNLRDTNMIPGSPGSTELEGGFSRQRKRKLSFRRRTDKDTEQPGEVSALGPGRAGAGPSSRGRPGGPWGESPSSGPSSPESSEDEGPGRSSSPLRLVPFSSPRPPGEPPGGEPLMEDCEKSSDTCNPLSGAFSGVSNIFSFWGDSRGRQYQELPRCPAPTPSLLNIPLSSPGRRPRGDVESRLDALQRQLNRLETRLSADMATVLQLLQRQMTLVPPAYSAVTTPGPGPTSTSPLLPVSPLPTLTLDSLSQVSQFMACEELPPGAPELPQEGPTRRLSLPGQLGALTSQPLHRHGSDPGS

Regarding `O=C1O[C@@H]([C@H](O)CO)[C@@H]2C[C@H](c3c(O)ccc(Cl)c3Cl)CN12` (single isomer, unassigned) [Compound 261], the negative logarithm of the IC50 (pIC50) was under 4.52 in assay [1] (setting [3]) and over 6.00 in assay [2] (setting [4]).

Take `CNCC1OC[C@@H]2C[C@H](c3c(O)ccc(Cl)c3Cl)CCN2C1=O` (stereo partly drawn) [Compound 182, (8R,9aS)-8-(2,3-dichloro-6-hydroxyphenyl)-3-[(methylamino)methyl]-hexahydro-1H-pyrido[2,1-c][1,4]oxazin-4-one]: the negative-log IC50 (pIC50) was over 4.52 in assay [1] (setting [3]) and over 6.00 in assay [2] (setting [4]).

On to `O=C1O[C@@H](CN2CCOCC2)[C@@H]2C[C@H](c3c(O)ccc(Cl)c3Cl)CN12` (single isomer, unassigned) [Compound 284], for which the results for the pIC50 in assay [1] (setting [3]) and in assay [2] (setting [4]) were under 4.52 and over 6.00, respectively.

On to `CNC(=O)CN1CC(=O)N2C[C@@H](c3c(O)ccc(Cl)c3Cl)C[C@H]2C1` [Compound 111, 2-[(7R,8aS)-7-(2,3-dichloro-6-hydroxyphenyl)-4-oxo-hexahydropyrrolo [1,2-a]pyrazin-2-yl]-N-methylacetamide], for which the pIC50 in assay [1] (setting [3]) is under 4.52; in assay [2] (setting [4]), over 6.00.

Consider `O=C1CN(C(=O)[C@H]2C[C@H](O)C2)C[C@@H]2C[C@H](c3c(O)ccc(Cl)c3Cl)CN12` (single isomer, unassigned; isomer 1) [Compound 27], for which the pIC50 in assay [1] (setting [5]) is under 4.52; in assay [2] (setting [6]), over 6.00.

Turning to `O=C(CO)N1CC(N2CC(=O)N3C[C@@H](c4c(O)ccc(Cl)c4Cl)C[C@H]3C2)C1` [Compound 133, (7R,8aS)-7-(2,3-dichloro-6-hydroxyphenyl)-2-[1-(2-hydroxyacetyl)azetidin-3-yl]-hexahydropyrrolo [1,2-a]pyrazin-4-one], the pIC50 in assay [1] (setting [3]) is under 4.52; in assay [2] (setting [4]) it was over 6.00.

For `O=C1CN(C2CNC2)C[C@@H]2C[C@H](c3c(O)ccc(Cl)c3Cl)CN12` [Compound 129, (7R,8aS)-2-(azetidin-3-yl)-7-(2,3-dichloro-6-hydroxyphenyl)-hexahydropyrrolo [1,2-a]pyrazin-4-one], the pIC50 in assay [1] (setting [3]) is under 4.52; in assay [2] (setting [4]), over 6.00.

On to `O=C(CO)N1CC(=O)N2CC[C@@H](c3c(O)ccc(Cl)c3Cl)C[C@H]2C1` [Compound 63, (8R,9aS)-8-(2,3-dichloro-6-hydroxyphenyl)-2-(2-hydroxyacetyl)-hexahydro-1H-pyrido[1,2-a]pyrazin-4-one], for which the pIC50 in assay [1] (setting [3]) is over 4.52; in assay [2] (setting [4]) it was over 6.00.

As to `O=C1CN([C@H]2CC[C@@H]2O)C[C@@H]2C[C@H](c3c(O)ccc(Cl)c3Cl)CN12` (relative stereo) [Compound 158, (7R,8aS)-7-(2,3-dichloro-6-hydroxyphenyl)-2-[(1R,2R)-rel-2-hydroxycyclobutyl]-hexahydropyrrolo[1,2-a]pyrazin-4-one], the pIC50 is under 4.52 in assay [1] (setting [3]) and over 6.00 in assay [2] (setting [4]).

`O=C1CN(C(=O)[C@H]2C[C@@H](O)C2)C[C@@H]2C[C@H](c3c(O)ccc(Cl)c3Cl)CN12` (single isomer, unassigned; isomer 2) [Compound 22]: the pIC50 in assay [1] (setting [5]) is under 4.52; in assay [2] (setting [6]), over 6.00.

Turning to `O=C(CCO)N1CC(=O)N2C[C@@H](c3c(O)ccc(Cl)c3Cl)C[C@H]2C1` [Compound 17, (7R,8aS)-7-(2,3-dichloro-6-hydroxyphenyl)-2-(3-hydroxypropanoyl)hexa-hydropyrrolo[1,2-a]pyrazin-4(1H)-one], the pIC50 in assay [1] (setting [5]) is under 4.52; in assay [2] (setting [6]) it was over 6.00.

As for `C[C@@H](O)[C@@H]1OC(=O)N2C[C@@H](c3c(O)ccc(Cl)c3Cl)C[C@@H]12` (single isomer, unassigned) [Compound 259], the pIC50 in assay [1] (setting [3]) was under 4.52; in assay [2] (setting [4]), over 6.00.

For the molecule `CO[C@H](CO)C(=O)N1CC(=O)N2C[C@@H](c3c(O)ccc(Cl)c3Cl)C[C@H]2C1` [Compound 14, (7R,8aS)-7-(2,3-dichloro-6-hydroxyphenyl)-2-[(2R)-3-hydroxy-2-methoxypropanoyl]-hexahydropyrrolo[1,2-a]pyrazin-4-one], the pIC50 in assay [1] (setting [5]) was under 4.52; in assay [2] (setting [6]), over 6.00.

As to `C[C@H]1C(=O)N2CC[C@@H](c3c(O)ccc(Cl)c3Cl)C[C@H]2CN1C(=O)CO` [Compound 46, (3S,8R,9aS)-8-(2,3-dichloro-6-hydroxyphenyl)-2-(2-hydroxyacetyl)-3-methyloctahydro-4H-pyrido[1,2-a]pyrazin-4-one], the negative-log IC50 (pIC50) is under 4.52 in assay [1] (setting [5]) and over 6.00 in assay [2] (setting [6]).

With `NC(=O)[C@@H]1OC(=O)N2C[C@@H](c3c(O)ccc(Cl)c3Cl)C[C@@H]12` (single isomer, unassigned) [Compound 286], the pIC50 in assay [1] (setting [3]) is under 4.52; in assay [2] (setting [4]) it was over 6.00.

For the molecule `CC[C@H](O)CC(=O)N1CC(=O)N2C[C@@H](c3c(O)ccc(Cl)c3Cl)C[C@H]2C1` [Compound 70, (7R,8aS)-7-(2,3-dichloro-6-hydroxyphenyl)-2-[(3S)-3-hydroxypentanoyl]-hexahydropyrrolo [1,2-a]pyrazin-4-one], the results for the pIC50 in assay [1] (setting [3]) and in assay [2] (setting [4]) were over 4.52 and over 6.00, respectively.

Regarding `CO[C@H](CO)C(=O)N1CC(=O)N2CC[C@@H](c3c(O)ccc(Cl)c3Cl)C[C@H]2C1` [Compound 29, (8R,9aS)-8-(2,3-dichloro-6-hydroxyphenyl)-2-[(2R)-3-hydroxy-2-methoxypropanoyl]-hexahydro-1H-pyrido[1,2-a]pyrazin-4-one], the pIC50 in assay [1] (setting [5]) was under 4.52; in assay [2] (setting [6]), over 6.00.

On to `O=C1CN(CC2CNC2)C[C@@H]2C[C@H](c3c(O)ccc(Cl)c3Cl)CN12` [Compound 128, (7R,8aS)-2-(azetidin-3-ylmethyl)-7-(2,3-dichloro-6-hydroxyphenyl)-hexahydropyrrolo [1,2-a]pyrazin-4-one], for which the negative-log IC50 (pIC50) in assay [1] (setting [3]) was under 4.52; in assay [2] (setting [4]), over 6.00.

For `O=C1CN(C2CC(O)C2)C[C@@H]2C[C@H](c3c(O)ccc(Cl)c3Cl)CN12` (stereo partly drawn) [Compound 123, (7R,8aS)-7-(2,3-dichloro-6-hydroxyphenyl)-2-(3-hydroxycyclobutyl)-hexahydropyrrolo[1,2-a]pyrazin-4-one], the pIC50 in assay [1] (setting [3]) is under 4.52; in assay [2] (setting [4]), over 6.00.

For `O=C1O[C@@H](CO)C[C@@H]2C[C@H](c3c(O)ccc(Cl)c3Cl)CN12` (single isomer, unassigned) [Compound 269], the pIC50 in assay [1] (setting [3]) is under 4.52; in assay [2] (setting [4]), over 6.00.

`COC[C@@H](O)CN1CC(=O)N2C[C@@H](c3c(O)ccc(Cl)c3Cl)C[C@H]2C1` (single isomer, unassigned; isomer 1) [Compound 152]: the pIC50 in assay [1] (setting [3]) was over 4.52; in assay [2] (setting [4]) it was over 6.00.

On to `O=C1O[C@@H](CCO)[C@@H]2C[C@H](c3c(O)ccc(Cl)c3Cl)CN12` (single isomer, unassigned) [Compound 271], for which the negative logarithm of the IC50 (pIC50) in assay [1] (setting [3]) was over 4.52; in assay [2] (setting [4]) it was over 6.00.

For `NC(=O)[C@H]1CC(=O)N2C[C@@H](c3c(O)ccc(Cl)c3Cl)C[C@H]2C1` (single isomer, unassigned) [Compound 231], the values for the pIC50 in assay [1] (setting [3]) and in assay [2] (setting [4]) were under 4.52 and over 6.00, respectively.

Consider `O=C1CN(c2cc(CO)ccn2)C[C@@H]2C[C@H](c3c(O)ccc(Cl)c3Cl)CN12` [Compound 173], for which the pIC50 in assay [1] (setting [3]) was over 4.52; in assay [2] (setting [4]), over 6.00.

In the case of `O=C1OC[C@H](O)[C@@H]2C[C@H](c3c(O)ccc(Cl)c3Cl)CN12` (single isomer, unassigned) [Compound 267], the pIC50 was under 4.52 in assay [1] (setting [3]) and over 6.00 in assay [2] (setting [4]).

(Values after US20230049231A1 (priority 2019, published 2023).)
